Test results as given in patent publication US8901118B2, “Compounds and methods for kinase modulation, and indications therefor” (Plexxikon Inc., priority 2010, dated 2014).

Legend:
[1] = target: T1, BCR-FMS BaF3 cells (Homo sapiens, UniProt P07333); experiment: BaF3 BCR-FMS cell proliferation assay (ATPlite); type: cell-based; settings: read-out: Inhibition of Cell Proliferation IC50, BCR/BaF3 Fms
T1 construct: fused on or other part: P11274 (Breakpoint cluster region protein)
T1 sequence (P07333 582-910): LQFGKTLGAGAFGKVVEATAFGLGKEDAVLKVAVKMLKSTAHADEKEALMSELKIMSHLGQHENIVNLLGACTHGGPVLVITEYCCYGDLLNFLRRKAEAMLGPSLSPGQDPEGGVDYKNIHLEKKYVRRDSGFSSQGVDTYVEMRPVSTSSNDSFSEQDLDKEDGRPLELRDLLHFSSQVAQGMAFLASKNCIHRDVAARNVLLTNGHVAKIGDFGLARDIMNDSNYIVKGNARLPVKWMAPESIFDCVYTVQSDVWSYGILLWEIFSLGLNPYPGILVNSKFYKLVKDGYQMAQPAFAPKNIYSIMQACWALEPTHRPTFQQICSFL
Method: Compounds are assessed in a variety of cell based assays. For example BaF3 cells engineered with any of BCR-FMS, BCR-KIT, BCR-FLT3, BCR-NTRK1, BCR-NTRK2, and BCR-NTRK3, are used in cell proliferation assays to assess inhibitory activity of Fms, Kit, Flt-3, TrkA, TrkB, and TrkC, respectively. An MV-4-11 (leukemia) cell proliferation assay is used to assess inhibitory activity in Flt-3, and SKNSH (human neuroblastoma) cell proliferation assay is used to assess efficacy of Fms/Trk inhibitors. Additional cells may be assayed similarly to assess the efficacy of Fms/Trk inhibitors, such as MiaPaCa (human pancreatic cancer) and Capan-1 (human pancreatic carcinoma) cells. Reagent and assay conditions are as follows: • BaF3 cells: • Maintained in RPMI containing 10% FBS, 1% PenStrep, 1% NEAA, and 1% L-Glutamine, supplemented with 1 mg/mL G418 and 5% WEHI-CM (or recombinant murine IL-3). • Confluent cells are split 1:50 to 1:100 every 3-4 days. • MV-4-11 cells: • Maintained in Iscove's Modified Dulbecco's Medium containing 10% FBS. • Confluent cells are split 1:4 every 3-4 days. • SKNSH cells: RPMI containing 10% FBS. On day 1, cells are counted, then centrifuged in a conical tube for 5 minutes at 1000 rpm. The supernatant is removed and cells are re-suspended as follows: • BaF3: resuspend in growth media +1 mg/mL G418 (without WEHFIL-3) to 2×10^5 cells/mL. • MV-4-11: resuspend in growth media to 5×10^5 cells/mL. • SKNSH: resuspend in growth media to 2×10^4 cells/mL. The cells are plated (50 μL, 150 μL for SKNSH cells) in each well of a 96-well dish (Corning 3610) and incubated at 37° C. in 5% CO2 overnight, cells plated to a final concentration of cells as follows: • BaF3: 10,000 cells per well. • MV-4-11: 25,000 cells per well. • SKNSH: 3,000 cells per well. On day 2, compound at a maximum concentration of 5 mM is serially diluted 1:3 for a total of 8 point titration with DMSO as a control. A 1 μL aliquot of each dilution point is added to 249 μL growth media and 50 μL is added to a well containing cells, providing 10 μM compound for the maximum concentration point. The cells are incubated for 3 days at 37° C. in 5% CO2. For SKNSH cells, a 0.75 μL aliquot of appropriate dilution in DMSO is added to 150 μL of cells. On day 5, ATPlite 1 step Luminescence Assay System (Perkin Elmer #6016739) is brought to room temperature along with the cell cultures. ATPlite is added to each well as follows: • BaF3: 25 μL per well. • MV-4-11: 40 μL per well. • SKNSH: 20 μL per well. The cells are incubated at room temperature for 10 minutes, then luminescence is read on Safire reader. The measured luminescence correlates directly with cell number, such that the reading as a function of compound concentration is used to determine the IC50 value.
It is understood that the results of these assays may vary as assay conditions are varied. Inhibition levels determined under the conditions described herein represent a relative activity for the compounds tested under the specific conditions employed. The cell based assays are likely to show variability due to the complexity of the system and the sensitivity thereof to any changes in the assay conditions. […] Results for compounds that are tested and show substantially no inhibition below the highest tested concentration are represented as “-” in the tables below. In some instances, the compounds were not tested in all of the assays, or assay results were not valid, as indicated by NA in the tables below.

[2] = target: c-Kit kinase (Homo sapiens, UniProt P10721); experiment: c-Kit kinase biochemical activity assay (AlphaScreen, biotin-(E4Y)10 phosphorylation); settings: 100 μM ATP; read-out: Biochemical Inhibition IC50 Kit
c-Kit kinase, sequence (P10721 26-976): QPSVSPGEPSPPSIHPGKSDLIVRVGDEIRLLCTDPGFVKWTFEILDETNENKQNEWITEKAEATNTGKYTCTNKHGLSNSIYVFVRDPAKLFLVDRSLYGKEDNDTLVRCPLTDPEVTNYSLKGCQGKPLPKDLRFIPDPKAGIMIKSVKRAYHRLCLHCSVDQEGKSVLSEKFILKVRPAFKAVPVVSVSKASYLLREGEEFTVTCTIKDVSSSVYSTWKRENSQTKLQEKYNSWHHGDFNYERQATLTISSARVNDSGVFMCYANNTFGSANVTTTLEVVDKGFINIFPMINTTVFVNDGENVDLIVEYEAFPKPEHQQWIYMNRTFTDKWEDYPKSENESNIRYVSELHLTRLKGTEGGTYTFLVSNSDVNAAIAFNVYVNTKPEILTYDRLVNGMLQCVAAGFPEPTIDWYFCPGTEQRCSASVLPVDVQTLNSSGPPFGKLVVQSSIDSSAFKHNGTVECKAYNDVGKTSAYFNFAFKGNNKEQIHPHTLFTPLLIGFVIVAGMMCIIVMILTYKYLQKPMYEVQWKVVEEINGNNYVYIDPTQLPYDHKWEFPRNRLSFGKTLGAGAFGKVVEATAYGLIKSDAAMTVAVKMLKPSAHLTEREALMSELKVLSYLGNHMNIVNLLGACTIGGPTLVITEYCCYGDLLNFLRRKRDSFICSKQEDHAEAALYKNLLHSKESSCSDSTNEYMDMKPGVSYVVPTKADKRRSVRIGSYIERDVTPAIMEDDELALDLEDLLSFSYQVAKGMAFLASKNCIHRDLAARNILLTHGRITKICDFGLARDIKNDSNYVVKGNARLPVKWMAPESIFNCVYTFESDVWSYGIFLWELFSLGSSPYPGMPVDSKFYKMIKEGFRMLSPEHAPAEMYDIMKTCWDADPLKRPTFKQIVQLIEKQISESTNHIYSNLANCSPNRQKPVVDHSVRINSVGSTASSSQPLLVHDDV
Method: Assays for biochemical and cell based activity are known in the art, for example, U.S. Patent Application Publication Number 2009/0076046, the disclosure of which is hereby incorporated by reference as it relates to such assays. For example, in one assay the biochemical activity IC50 values are determined with respect to inhibition of c-Kit kinase activity, where inhibition of phosphorylation of a peptide substrate is measured as a function of compound concentration. Compounds to be tested are dissolved in DMSO to a concentration of 20 mM. These are diluted 30 μL into 120 μL of DMSO (4 mM) and 1 μL is added to an assay plate. These are then serially diluted […] (50 μL to 100 μL DMSO) for a total of 8 points. Plates are prepared such that each kinase reaction is 20 μL in 1× kinase buffer (25 mM HEPES, pH 7.5, 2 mM MgCl2, 2 mM MnCl2, 0.01% Tween-20, 1 mM DTT, 0.01% BSA), 5% DMSO and 100 μM ATP. Substrate is 30 nM biotin-(E4Y) 10 (Millipore). C-kit kinase (obtained from Millipore (#14-559) or is prepared as described in U.S. Patent Application Publication Number 2009/0076046, the disclosure of which is hereby incorporated by reference as it relates to this assay) is at 0.75 ng per sample. After incubation of the kinase reaction for 1 hour at room temperature, 5 μL of donor beads (Streptavidin coated beads (Perkin Elmer Life Science) final concentration 10 μg/mL) in stop buffer (25 mM Hepes pH 7.5, 100 mM EDTA, 0.01% BSA) is added, the sample is mixed and incubated for 20 minutes at room temperature before adding 5 μL of acceptor beads (PY20 coated beads (Perkin Elmer Life Science) final concentration 10 μg/mL) in stop buffer. The samples are incubated for 60 minutes at room temperature and the signal per well is read on Envision reader. Phosphorylated substrate results in binding of the PY20 antibody and association of the donor and acceptor beads such that signal correlates with kinase activity. The signal vs. compound concentration is used to determine the IC50.

IC50 [1]	IC50 [2]	SMILES
< 100 nM	< 1000 nM	CCCCNc1ncnc2[nH]cc(C(=O)c3ccc(Nc4ccc(OC)nc4)nc3F)c12 [Compound P-4080, [4-(butylamino)-7H-pyrrolo[2,3-d]pyrimidin-5-yl]-[2-fluoro-6-[(6-methoxy-3-pyridyl)amino]-3-pyridyl]methanone]
< 10 nM	< 100 nM	CCNc1ncnc2[nH]cc(C(=O)c3ccc(Nc4ccc(OC)nc4)nc3F)c12 [Compound P-4081, [4-(ethylamino)-7H-pyrrolo[2,3-d]pyrimidin-5-yl]-[2-fluoro-6-[(6-methoxy-3-pyridyl)amino]-3-pyridyl]methanone]
< 10 nM	< 1000 nM	COc1ccc(Nc2ccc(C(=O)c3c[nH]c4ncnc(NC5CCCCC5)c34)c(F)n2)cn1 [Compound P-4082, [4-(cyclohexylamino)-7H-pyrrolo[2,3-d]pyrimidin-5-yl]-[2-fluoro-6-[(6-methoxy-3-pyridyl)amino]-3-pyridyl]methanone]
< 100 nM	< 100 nM	CNc1ncnc2[nH]cc(C(=O)c3ccc(Nc4ccc(OC)nc4)nc3F)c12 [Compound P-4083, [2-fluoro-6-[(6-methoxy-3-pyridyl)amino]-3-pyridyl]-[4-(methylamino)-7H-pyrrolo[2,3-d]pyrimidin-5-yl]methanone]
< 10 nM	< 100 nM	COc1ccc(Nc2ccc(C(=O)c3c[nH]c4ncnc(NCC(F)(F)F)c34)c(F)n2)cn1 [Compound P-4084, [2-fluoro-6-[(6-methoxy-3-pyridyl)amino]-3-pyridyl]-[4-(2,2,2-trifluoroethylamino)-7H-pyrrolo[2,3-d]pyrimidin-5-yl]methanone]
< 1000 nM	< 1000 nM	CNc1ncnc2[nH]cc(C(=O)c3ccc(Nc4ccc(OC)nc4)nc3OC)c12 [Compound P-4085, [2-methoxy-6-[(6-methoxy-3-pyridyl)amino]-3-pyridyl]-[4-(methylamino)-7H-pyrrolo[2,3-d]pyrimidin-5-yl]methanone]
< 1000 nM	< 100 nM	O=C(c1ccc(NC2CCC(F)(F)CC2)nc1)c1c[nH]c2ncnc(NCC(F)(F)F)c12 [Compound P-4087, [6-[(4,4-difluorocyclohexyl)amino]-3-pyridyl]-[4-(2,2,2-trifluoroethylamino)-7H-pyrrolo[2,3-d]pyrimidin-5-yl]methanone]
< 100 nM	< 1000 nM	O=C(c1ccc(NC2CCC(F)(F)CC2)nc1)c1c[nH]c2ncnc(NC3CC3)c12 [Compound P-4088, [4-(cyclopropylamino)-7H-pyrrolo[2,3-d]pyrimidin-5-yl]-[6-[(4,4-difluorocyclohexyl)amino]-3-pyridyl]methanone]
< 100 nM	< 1000 nM	CNc1ncnc2[nH]cc(C(=O)c3ccc(NC4CCC(F)(F)CC4)nc3)c12 [Compound P-4089, [6-[(4,4-difluorocyclohexyl)amino]-3-pyridyl]-[4-(methylamino)-7H-pyrrolo[2,3-d]pyrimidin-5-yl]methanone]
< 100 nM	< 1000 nM	O=C(c1ccc(Nc2ccc(C3CC3)nc2)nc1F)c1c[nH]c2ncnc(NCC(F)(F)F)c12 [Compound P-4090, [6-[(6-cyclopropyl-3-pyridyl)amino]-2-fluoro-3-pyridyl]-[4-(2,2,2-trifluoroethylamino)-7H-pyrrolo[2,3-d]pyrimidin-5-yl]methanone]
< 10 nM	< 100 nM	O=C(c1ccc(Nc2ccc(C(F)(F)F)nc2)nc1F)c1c[nH]c2ncnc(NC3CC3)c12 [Compound P-4091, [4-(cyclopropylamino)-7H-pyrrolo[2,3-d]pyrimidin-5-yl]-[2-fluoro-6-[[6-(trifluoromethyl)-3-pyridyl]amino]-3-pyridyl]methanone]
< 10 nM	< 100 nM	CNc1ncnc2[nH]cc(C(=O)c3ccc(Nc4ccc(C(F)(F)F)nc4)nc3F)c12 [Compound P-4092, [2-fluoro-6-[[6-(trifluoromethyl)-3-pyridyl]amino]-3-pyridyl]-[4-(methylamino)-7H-pyrrolo[2,3-d]pyrimidin-5-yl]methanone]
